Laboratory results from patent US9249453B2, “Method for identifying a malodor inhibitor” (Kao Corporation, priority 2011, dated 2016).

Columns and labels:
Assay type in all cases: cell-based
OR5K1 = biological target: T1, OR5K1 (Homo sapiens, UniProt Q8NHB7); assay: Luciferase reporter assay: suppression of the skatole response of OR5K1 expressed in HEK293 cells; conditions: test substance 100 μM mixed with 300 μM skatole, HEK293 cells expressing OR5K1; for inhibition at 100 µM: 4 h, read-out: Inhibition rate 5K1
T1 construct: expressed in transfected cells; host or cells: HEK293
T1 sequence (Q8NHB7 1-308): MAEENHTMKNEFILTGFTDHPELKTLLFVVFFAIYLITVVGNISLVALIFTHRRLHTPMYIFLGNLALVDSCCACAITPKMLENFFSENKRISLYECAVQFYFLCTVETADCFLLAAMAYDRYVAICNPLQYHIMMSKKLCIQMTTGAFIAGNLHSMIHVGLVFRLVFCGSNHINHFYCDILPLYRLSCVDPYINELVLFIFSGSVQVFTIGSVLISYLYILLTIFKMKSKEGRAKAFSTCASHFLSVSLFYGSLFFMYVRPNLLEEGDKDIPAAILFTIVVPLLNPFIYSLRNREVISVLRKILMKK
Experimental: (§1) A reaction solution having a composition shown in Table 1 was prepared on a clean bench, and left to stand for 15 minutes. The solution was dispensed to each well of a 96-well plate (BD). Subsequently, HEK293 cells (100 μL, 3×10^5 cells/cm^2) were seeded in each well and cultured for 24 hours in an incubator at 37° C. and under 5% CO2 conditions.
(§2) The olfactory receptor expressed in HEK293 cells activates adenylate cyclase with the aid of Gαs present in cells, to thereby increase intracellular cAMP level. In this study, odorant response was measured by a luciferase reporter gene assay which monitored the intracellular cAMP level as the luminescence value derived from a firefly luciferase gene (fluc2P-CRE-hygro). Also, a Renilla luciferase gene fused downstream of a CMV promoter (hRluc-CMV) was also transfected to HEK293 cells as an internal standard to correct errors in gene transfer efficiency and number of cells.
(§3) Cell culturing was performed for four hours in a CO2-incubator, whereby the luciferase gene sufficiently expressed in the cells. Luciferase activity was measured by means of a Dual-Glo™ luciferase assay system (promega) according to an instruction manual thereof. The luminescence value derived from firefly luciferase induced by odorant stimulation was divided by the luminescence value of cells which were not stimulated with odorants. The thus-obtained—called “fold increase”—was employed as an index for response intensity.
(§4) The response inhibition rate of a test substance was calculated as follows. Firstly, luminescence value derived from firefly luciferase induced by stimulation with skatole (X), and luminescence value in cells which expressed the same receptor but were not stimulated with skatole (Y) were determined. By subtracting Y from X, the receptor activity by stimulation with skatole alone (X−Y) was determined. Similarly, the luminescence value induced by stimulation with a mixture of skatole and a test substance (Z) was determined. Through subtracting Y (the luminescence value in cells which expressed the same receptor but were not stimulated with skatole) from Z, the receptor activity (Z−Y) by stimulation with a mixture of skatole and the test substance was obtained. From the thus-obtained receptor activity by stimulation with skatole alone (X−Y) and the receptor activity in the presence of a test material (Z−Y), the response inhibition rate of the test substance was calculated by the following equation: Inhibition rate (%)={1−(Z−Y)/(X−Y)}×100.
(§5) In each case, multiple independent experiments were performed in duplicate, and the average of each experiment was used.

OR5P3 = biological target: T2, OR5P3 (Homo sapiens, UniProt Q8WZ94); assay: Luciferase reporter assay: suppression of the skatole response of OR5P3 expressed in HEK293 cells; conditions: test substance 100 μM mixed with 300 μM skatole, HEK293 cells expressing OR5P3
T2 construct: expressed in transfected cells; host or cells: HEK293
T2 sequence (Q8WZ94 1-311): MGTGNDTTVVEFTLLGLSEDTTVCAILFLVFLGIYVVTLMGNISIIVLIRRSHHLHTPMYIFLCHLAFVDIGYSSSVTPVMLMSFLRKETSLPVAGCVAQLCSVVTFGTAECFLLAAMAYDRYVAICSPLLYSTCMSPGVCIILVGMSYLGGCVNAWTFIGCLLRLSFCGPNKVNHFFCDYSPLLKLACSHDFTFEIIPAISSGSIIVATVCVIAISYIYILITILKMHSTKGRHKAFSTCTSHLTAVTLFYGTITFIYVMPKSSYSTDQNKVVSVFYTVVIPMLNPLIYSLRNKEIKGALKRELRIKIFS
Experimental: as §1, §2, §3, §4, §5

OR8H1 = biological target: T3, OR8H1 (Homo sapiens, UniProt Q8NGG4); assay: Luciferase reporter assay: suppression of the skatole response of OR8H1 expressed in HEK293 cells; conditions: test substance 100 μM mixed with 300 μM skatole, HEK293 cells expressing OR8H1; for inhibition at 100 µM: 4 h, read-out: Inhibition rate 8H1
T3 construct: expressed in transfected cells; host or cells: HEK293
T3 sequence (Q8NGG4 1-311): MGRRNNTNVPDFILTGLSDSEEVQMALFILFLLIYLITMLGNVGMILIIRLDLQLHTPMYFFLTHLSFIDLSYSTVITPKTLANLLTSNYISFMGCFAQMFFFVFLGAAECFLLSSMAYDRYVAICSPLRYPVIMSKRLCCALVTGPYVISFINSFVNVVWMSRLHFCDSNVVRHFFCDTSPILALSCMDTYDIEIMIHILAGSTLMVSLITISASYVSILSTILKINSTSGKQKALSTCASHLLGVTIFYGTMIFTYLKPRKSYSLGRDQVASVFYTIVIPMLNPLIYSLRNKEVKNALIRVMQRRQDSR
Experimental: as §1, §2, §3, §4, §5

OR2W1 = biological target: T4, OR2W1 (Homo sapiens, UniProt Q9Y3N9); assay: Luciferase reporter assay: suppression of the skatole response of OR2W1 expressed in HEK293 cells; conditions: test substance 100 μM mixed with 300 μM skatole, HEK293 cells expressing OR2W1; for inhibition at 100 µM: 4 h, read-out: Inhibition rate 2W1
T4 construct: expressed in transfected cells; host or cells: HEK293
T4 sequence (Q9Y3N9 1-320): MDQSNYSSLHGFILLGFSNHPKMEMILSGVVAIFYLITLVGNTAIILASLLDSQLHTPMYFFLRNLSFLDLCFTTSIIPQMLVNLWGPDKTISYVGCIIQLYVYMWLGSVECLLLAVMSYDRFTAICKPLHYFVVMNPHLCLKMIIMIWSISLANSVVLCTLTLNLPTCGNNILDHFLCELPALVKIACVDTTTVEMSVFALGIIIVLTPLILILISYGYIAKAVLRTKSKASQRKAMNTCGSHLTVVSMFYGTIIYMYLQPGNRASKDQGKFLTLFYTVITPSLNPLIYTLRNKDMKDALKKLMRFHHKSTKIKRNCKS
Experimental: as §1, §2, §3, §4, §5

Row | Compound | Inhibition rate 5K1 (OR5K1) | Inhibition rate 5P3 (OR5P3) | Inhibition rate 8H1 (OR8H1) | Inhibition rate 2W1 (OR2W1) | inhibition at 100 µM (OR2W1) | inhibition at 100 µM (OR5K1) | inhibition at 100 µM (OR8H1)
1 | C=CCOC(=O)CCC1CCCCC1 [Allyl cyclohexylpropionate] | C (C >20%) | – | C (C >20%) | C (C >20%) | – | – | –
2 | CCC(O)COC1CCCCC1C(C)(C)C (centres unmarked) [Ambercore, 1-(2-tert-Butylcyclohexyloxy)-2-butanol] | – | B (B >50%) | – | – | > 80% | 50 to 80% | > 80%
3 | CC1(C)CCCC2(C)C1CCC1(C)OCCC12 (centres unmarked) [Ambroxane, Dodecahydro-3a,6,6,9a-tetramethyl-naphtho[2.1-b]furan] | C (C >20%) | B (B >50%) | A (A >80%) | A (A >80%) | – | – | –
4 | CC1(C)CCCC2=C1CC(C=O)CC2 (centres unmarked) [Cyclemone A, 1,2,3,4,5,6,7,8-octahydro-8,8-dimethyl-2-naphthaldehyde] | – | C (C >20%) | – | – | 50 to 80% | 20 to 50% | 20 to 50%
5 | C=CCCC(=O)C1=CCCC(C)(C)C1 [Dinascone, 1-(5,5-Dimethyl-cyclohexen-1-yl)-4-penten-1-one] | – | B (B >50%) | – | – | > 80% | 50 to 80% | > 80%
6 | CC1=CCC(C=CC(C)C(C)O)C1(C)C (centres unmarked) [Ebanol, 3-Methyl-5-(2,2,3-trimethyl-3-cyclopenten-1-yl)-4-penten-2-ol] | – | A (A >80%) | – | – | 50 to 80% | > 80% | 50 to 80%
7 | CCOC(=O)C1OC1(C)c1ccccc1 (centres unmarked) [Ethyl-2,3-epoxy-3-methyl-3-phenyl propionate] | C (C >20%) | C (C >20%) | B (B >50%) | – | – | – | –
8 | CC(C)c1cccc(C(C)CC=O)c1 (stereo not drawn) [Florhydral, β-Methyl-3-(1-methylethyl)benzenepropanal] | – | B (B >50%) | – | – | 50 to 80% | 50 to 80% | 50 to 80%
9 | CCOC(=O)OC1CCCCC1C(C)(C)C (centres unmarked) [Flormat, Ethyl 2-tert-butyl cyclohexyl carbonate] | B (B >50%) | A (A >80%) | A (A >80%) | A (A >80%) | – | – | –
10 | CC1COCc2cc3c(cc21)C(C)(C)C(C)C3(C)C (centres unmarked) [Galaxolide, 1,3,4,6,7,8-Hexahydro-4,6,6,7,8,8-hexamethylcyclopenta-γ-2-benzopyran] | – | C (C >20%) | – | – | 50 to 80% | > 80% | > 80%
11 | C=CC(C)=CCC(C)(C)C(=NO)C(C)C [Labienoxime, 2,4,4,7-Tetramethyl-6,8-nonadiene-3-one oxime] | – | – | – | – | 50 to 80% | < 20% | 20 to 50%
12 | CC1C/C=C/CCCCCCCCCC(=O)C1 (centres unmarked) [Muscenone delta, (5E)-3-methylcyclopentadec-5-en-1-one] | – | C (C >20%) | – | – | 20 to 50% | < 20% | 20 to 50%
13 | CC1=CC(C)C(C=O)CC1 (centres unmarked) [Triplal, Dimethyl-3-cyclohexene-1-carboxaldehyde] | – | C (C >20%) | C (C >20%) | C (C >20%) | – | – | –
14 | CC(C)(C)c1ccc(CCC=O)cc1 [bourgeonal, 3-(4-tert-butylphenyl)propionaldehyde] | – | – | – | – | > 80% | 50 to 80% | < 20%
15 | C=C(C)C1CC=C(C=O)CC1 (centres unmarked) [perillaldehyde, 4-(1-Methylethenyl)-1-cyclohexene-1-carboxyaldehyde] | – | – | – | – | < 20% | 20 to 50% | 50 to 80%
16 | CC(=O)C=CC1=C(C)CCCC1(C)C [β-ionone, 4-(2,6,6-Trimethyi-1-cyclohexen-1-yl)-3-buten-2-one] | B (B >50%) | – | A (A >80%) | C (C >20%) | – | – | –

Second part, the compound after the results:

Row | Inhibition rate 5K1 (OR5K1) | Inhibition rate 5P3 (OR5P3) | Inhibition rate 8H1 (OR8H1) | Inhibition rate 2W1 (OR2W1) | inhibition at 100 µM (OR2W1) | inhibition at 100 µM (OR5K1) | inhibition at 100 µM (OR8H1) | Compound
17 | C (C >20%) | C (C >20%) | C (C >20%) | – | – | – | – | 2,6-Dimethyl-2-octanol/3,7-Dimethyl-3-octanol [tetrahydromugol]
18 | – | C (C >20%) | C (C >20%) | C (C >20%) | – | – | – | 4(3)-(4-Methyl-3-pentenyl)-3-cyclohexenylmethyl acetate [myraldyl acetate]
19 | C (C >20%) | B (B >50%) | – | B (B >50%) | – | – | – | CC/C=C\CCOC(=O)c1ccccc1O [cis-3-hexynlyl salicylate, 3(Z)-Hexenyl 2-hydroxy benzoate]
20 | – | – | – | – | 20 to 50% | 20 to 50% | 20 to 50% | CC(=O)OCCC(C)CCC=C(C)C (centres unmarked) [citronellyl acetate, 3,7-Dimethyl-6-octen-1-yl acetate]
21 | C (C >20%) | C (C >20%) | B (B >50%) | – | – | – | – | CC(=O)OC(C)(C)Cc1ccccc1 [dimethylbenzylcarbinyl acetate, α,α-Dimethyl phenylethyl acetate]
22 | – | C (C >20%) | – | B (B >50%) | – | – | – | CCCCCCOC(=O)c1ccccc1O [hexyl salicylate, n-Hexyl-o-hydroxy benzoate]
23 | – | – | – | – | > 80% | < 20% | 20 to 50% | CC(C)=CCCC1=CCC(C=O)CC1 (centres unmarked) [myrac aldehyde, 4-(4-Methyl-3-penten-1-yl)-3-cyclohexene-1-carboxaldehyde]
24 | – | – | – | – | 20 to 50% | < 20% | 50 to 80% | CC(C)Cc1ccc(CC(C)C=O)cc1 (stereo not drawn) [suzaral, α-Methyl-4-(2-methylpropyl)-benzenepropanal]
25 | C (C >20%) | C (C >20%) | B (B >50%) | – | – | – | – | Hexahydro-4,7-methanoinden-5(6)-yl acetate [tricyclodecenyl acetate]
